The first assay relates to saphenous artery rings. Description: Vasorelaxant effect in vitro (phenylephrine-contracted artery rings). Type of assay: cell-based. The note with it: Oryctolagus cuniculus, rabbit saphenous artery rings, contraction induced by phenylephrine. Here is the method:
Rabbits are anesthetized and sacrificed by intravenous injection of thiopental sodium (about 50 mg/kg) and exsanguinated. The saphenous artery is removed and divided into rings 3 mm wide. The rings are mounted singly on in each case a pair of triangular hooks open at the end and made of 0.3 mm-thick special wire (Remanium®). Each ring is placed under an initial tension in 5 ml organ baths with Krebs-Henseleit solution which is at 37° C., is gassed with 95% 02/5% CO2 and has the following composition: NaCl 119 mM; KCl 4.8 mM; CaCl2×2H2O 1 mM; MgSO4×7 H2O 1.4 mM; KH2PO4 1.2 mM; NaHCO3 25 mM; glucose 10 mM; bovine serum albumin 0.001%. The force of contraction is detected with Statham UC2 cells, amplified and digitized via A/D converters (DAS-1802 HC, Keithley Instruments, Munich) and recorded in parallel on chart recorders. Contractions are induced by addition of phenylephrine.
After several (generally 4) control cycles, the substance to be investigated is added in each further run in increasing dosage, and the height of the contraction achieved under the influence of the test substance is compared with the height of the contraction reached in the last preceding run. The concentration necessary to reduce the contraction reached in the preceding control by 50% is calculated from this (IC50). The standard application volume is 5 μl. The proportion of DMSO in the bath solution corresponds to 0.1%.
As a reminder, the IC50 is the midpoint of a concentration-inhibition curve. A higher IC50 goes with weaker potency in that assay. In the case of `COc1ccc(CCc2ccc(F)cc2/C=C/C(CCc2ccc(-c3noc(=O)[nH]3)cc2)Cc2ccc(C(=O)O)cc2)cc1` (single isomer, unassigned) [Example 11, E-4-(4-{5-Fluoro-2-[2-(4-methoxyphenyl)ethyl]phenyl}-2-{2-[4-(5-oxo-4,5-dihydro-[1,2,4]oxadiazol-3-yl)phenyl]ethyl}but-3-enyl)benzoic acid], the IC50 is 0.724 µM.
Same read-out and setting: the same measure for `O=C(O)c1ccc(CC(/C=C/c2ccccc2OCc2ccc(-c3ccc(C(F)(F)F)cc3)cc2)CCc2ccc(-c3noc(=O)[nH]3)cc2)cc1` (single isomer, unassigned) [Example 18]: 0.49 µM.
The same measure, in the same setting: the same measure for `CC(C)(C)c1ccc(COc2ccc(F)cc2/C=C/C(CCc2ccc(-c3noc(=O)[nH]3)cc2)Cc2ccc(C(=O)O)cc2)cc1` (single isomer, unassigned) [Example 51]: 0.505 µM; for `O=C(O)c1ccc(CCC(/C=C\c2ccccc2OCc2ccc(-c3ccc(C(F)(F)F)cc3)cc2)Cc2ccc(-c3noc(=O)[nH]3)cc2)cc1` (single isomer, unassigned) [Example 57]: 0.714 µM.
On the same count and under the same terms, the same measure for `CC(C)(C)c1ccc(COc2ccccc2/C=C/C(CCc2ccc(C(=O)O)cc2)Cc2ccc(-c3noc(=O)[nH]3)cc2)cc1` (single isomer, unassigned) [Example 66]: 0.263 µM; for `CC(C)(C)c1ccc(COc2ccccc2/C=C/C(CCCCC(=O)O)CCc2ccc(-c3noc(=O)[nH]3)cc2)cc1` (single isomer, unassigned) [Example 71, E-8-[2-(4-tert-Butylbenzyloxy)phenyl]-6-{2-[4-(5-oxo-4,5-dihydro-[1,2,4]oxadiazol-3-yl)phenyl]-ethyl}oct-7-enoic acid]: 0.898 µM.
`CC(C)(C)c1ccc(COc2ccccc2/C=C/C(CCc2ccc(C(=O)O)cc2)Cc2ccc(-c3n[nH]c(=O)o3)cc2)cc1` (single isomer, unassigned) [Example 78, 4-{(4E)-5-{2-[(4-tert-Butylbenzyl)oxy]phenyl}-3-[4-(5-oxo-4,5-dihydro-1,3,4-oxadiazol-2-yl)benzyl]pent-4-en-1-yl}benzoic acid] had an IC50 of 0.013 µM.
Same read-out and setting: the same measure for `CCCCCOc1ccccc1/C=C/C(CCc1ccc(C(=O)O)cc1)Cc1ccc(-c2noc(=O)[nH]2)cc1` (single isomer, unassigned) [Example 92]: 0.39 µM; for `CCCCCCOc1ccccc1/C=C/C(CCc1ccc(C(=O)O)cc1)Cc1ccc(-c2noc(=O)[nH]2)cc1` (single isomer, unassigned) [Example 95]: 0.41 µM; for `O=C(O)c1ccc(CCC(/C=C\c2ccccc2OC(F)(F)F)Cc2ccc(-c3noc(=O)[nH]3)cc2)cc1` (single isomer, unassigned) [Example 96]: 1.33 µM.
Still for that read-out and setting: as for `O=C(O)c1ccc(CN(CCc2ccc(-c3noc(=O)[nH]3)cc2)CCc2ccccc2OCc2ccc(-c3ccc(C(F)(F)F)cc3)cc2)cc1` [Example 1, 4-[({2-[4-(5-Oxo-4,5-dihydro-[1,2,4]oxadiazol-3-yl)phenyl]ethyl}-{2-[2-(4′-trifluoromethylbiphenyl-4-ylmethoxy)phenyl]ethyl}amino)methyl]benzoic acid], the figure is 0.026 µM; as for `CC(C)(C)c1ccc(COc2ccccc2/C=C/C(CCCCC(=O)O)CCc2ccc(-c3n[nH]c(=O)o3)cc2)cc1` (stereo not shown) [Example 74], 0.29 µM; as for `CC(C)(C)c1ccc(COc2ccccc2/C=C/C(CCc2ccc(-c3n[nH]c(=S)[nH]3)cc2)Cc2ccc(C(=O)O)cc2)cc1` (stereo not shown) [Example 76, 4-((3E)-4-{2-[(4-tert-Butylbenzyl)oxy]phenyl}-2-{2-[4-(5-thioxo-4,5-dihydro-1H-1,2,4-triazol-3-yl)phenyl]ethyl}but-3-en-1-yl)benzoic acid], 0.851 µM.
The same measure, in the same setting: the same measure for `CC(C)(C)c1ccc(COc2ccccc2/C=C/C(CCc2ccc(C(=O)O)cc2)Cc2ccc(-c3n[nH]c(=O)[nH]3)cc2)cc1` (stereo not shown) [Example 80, 4-{(4E)-5-{2-[(4-tert-Butylbenzyl)oxy]phenyl}-3-[4-(5-oxo-4,5-dihydro-1H-1,2,4-triazol-3-yl)benzyl]pent-4-en-1-yl}benzoic acid]: 0.074 µM; for `CC(C)(C)c1ccc(COc2ccccc2/C=C/C(CCc2ccc(C(=O)O)cc2)Cc2ccc(-c3n[nH]c(N)n3)cc2)cc1` (stereo not shown) [Example 81, 4-((4E)-3-[4-(5-Amino-1H-1,2,4-triazol-3-yl)benzyl]-5-{2-[(4-tert.-butylbenzyl)oxy]phenyl}pent-4-en-1-yl)benzoic acid]: 0.422 µM; for `CC(C)(C)c1ccc(COc2ccccc2/C=C/C(CCCCC(=O)O)Cc2ccc(-c3n[nH]c(=O)o3)cc2)cc1` (stereo not shown) [Example 85, E-8-[2-(4-tert-Butylbenzyloxy)phenyl]-6-[4-(5-oxo-4,5-dihydro-[1,3,4]oxadiazol-2-yl)benzyl]oct-7-enoic acid]: 0.058 µM.

Staying with this assay, now noted: rabbit saphenous artery rings, contraction induced by phenylephrine.
With `O=C(O)c1ccc(CC(/C=C/c2ccccc2OCc2ccc(-c3ccc(C(F)(F)F)cc3)cc2)CCc2ccc(-c3noc(=O)[nH]3)cc2)cc1` (single isomer, unassigned) [Example 19], the IC50 was 0.85 µM. In other words, the sub-micromolar range.
For the molecule `O=C(O)c1ccc(CCC(/C=C/c2ccccc2OCc2ccc(-c3ccc(C(F)(F)F)cc3)cc2)Cc2ccc(-c3noc(=O)[nH]3)cc2)cc1` (single isomer, unassigned) [Example 56, E-4-{3-[4-(5-Oxo-4,5-dihydro-[1,2,4]oxadiazol-3-yl)benzyl]-5-[2-(4′-trifluoromethylbiphenyl-4-ylmethoxy)phenyl]pent-4-enyl}benzoic acid], the 50% inhibitory concentration (IC50) turned out to be 0.635 µM.
Same read-out and setting: the same measure for `CC(C)(C)c1ccc(COc2ccccc2/C=C/C(CCc2ccc(C(=O)O)cc2)Cc2ccc(-c3noc(=O)[nH]3)cc2)cc1` (single isomer, unassigned) [Example 67]: 0.153 µM.

For the origin of these results see US7998988B2, “Biphenyl compounds useful in the treatment or prevention of cardiovascular disorders” (Bayer Schering Pharma Aktiengellschaft, priority 2005, dated 2011).
